Measured values published in US20040102431A1, “Substituted amino-aza-cycloalkanes useful against malaria” (priority 2000, published 2004).
pIC50: −log10 of the molar value. Where two headings read alike, the source gives them in different places. Square brackets hold non-standard residues; d marks the D form. Peptide text beside a SMILES is read from it. * marks the point of attachment. Sta = CC(C)C[C@H](N)[C@@H](O)CC(=O)O; Isovaleryl = CC(C)CC(=O)*

Legend:
[1] = target: plasmepsin II (Plasmodium falciparum, UniProt P46925); assay: biochemical; settings: for IC50: FRET, pH 5, 37° C., 40 min, substrate 1 μM, read-out: IC50 (nM) on plasmepsin II
Chain of plasmepsin II (P46925 125-453): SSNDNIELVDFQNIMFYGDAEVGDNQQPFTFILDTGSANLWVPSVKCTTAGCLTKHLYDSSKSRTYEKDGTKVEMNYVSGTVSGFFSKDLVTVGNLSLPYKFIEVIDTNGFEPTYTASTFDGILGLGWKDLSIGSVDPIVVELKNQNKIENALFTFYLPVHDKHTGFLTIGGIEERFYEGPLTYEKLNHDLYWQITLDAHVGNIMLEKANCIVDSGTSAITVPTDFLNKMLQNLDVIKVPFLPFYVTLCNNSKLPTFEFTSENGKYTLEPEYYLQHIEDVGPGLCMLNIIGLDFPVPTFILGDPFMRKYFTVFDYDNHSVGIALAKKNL

[2] = test system: P. falciparum; settings: cited from earlier work

CCCCCc1ccc(C(=O)N(CCCc2ccccc2)C2CCN(Cc3ccccc3)CC2)cc1 [Example 2] showed a pIC50 [1] of 5.82.
CCCCCc1ccc(C(=O)N(Cc2ccc(-c3ccccc3F)cc2)C2CCN(Cc3ccoc3)CC2)cc1 [Example 60, N-(2′-Fluorobiphenyl-4-ylmethyl)-N-(1-furan-3-ylmethylpiperidin-4-yl)-4-pentylbenzamide] gave an IC50 ([1]; Additional Examples table) of 87 nM.
Work on CCCCCc1ccc(C(=O)N(Cc2ccc(OCCCC)cc2)C2CCN(Cc3ccccc3)CC2)cc1 [Example 25] yielded an IC50 ([1]; […]) of 220 nM.
For CCCCOc1ccc(C(=O)N(Cc2ccc(OCc3ccccc3)c(OCc3ccccc3)c2)C2CCN(Cc3ccccc3)CC2)cc1 [Example 11], the IC50 ([1]; […]) was 3200 nM.
CCCCCc1ccc(CN(Cc2ccc(-c3ccc(C#N)cc3)cc2)C2CCN(Cc3ccccc3)CC2)cc1 [Example 95, 4′-{[(1-Benzylpiperidin-4-yl)-(4-pentylbenzyl)amino]methyl}-biphenyl-4-carbonitrile] gave an IC50 ([1]; Additional Examples table) of 294 nM.
In the case of CCCCCc1ccc(C(=O)N(Cc2ccc(OC(F)(F)F)cc2)C2CCN(Cc3ccccc3)CC2)cc1 [Example 80, N-(1-Benzylpiperidin-4-yl)-4-pentyl-N-(4-trifluoromethoxybenzyl)benzamide], the IC50 ([1]; Additional Examples table) was 187 nM.
In the case of CCCCCc1ccc(C(=O)N(Cc2ccc(-c3ccc(OC)c(OC)c3)cc2)C2CCN(Cc3ccoc3)CC2)cc1 [Example 43, N-(3′,4′-Dimethoxybiphenyl-4-ylmethyl)-N-(1-furan-3-ylmethylpiperidin-4-yl)-4-pentylbenzamide], the IC50 ([1]; Additional Examples table) was 31 nM.
Work on CCCCCc1ccc(C(=O)N(Cc2ccc(OCc3ccccc3)cc2)C2CCN(CCc3ccccc3)CC2)cc1 [Example 112, N-(4-Benzyloxybenzyl)-4-pentyl-N-(1-phenethylpiperidin-4-yl)benzamide] yielded an IC50 ([1]; Additional Examples table) of 761 nM.
Work on CCCCCc1ccc(C(=O)N(Cc2ccc(N(CCCC)CCCC)cc2)C2CCN(Cc3ccccc3)CC2)cc1 [Example 115, N-(1-Benzylpiperidin-4-yl)-N-(4-dibutylaminobenzyl)-4-pentyl-benzamide] yielded an IC50 ([1]; Additional Examples table) of 839 nM.
Work on CCCCCc1ccc(CN(Cc2ccc(-c3ccc(OC)c(OC)c3)cc2)C2CCN(Cc3ccccc3)CC2)cc1 [Example 88, (1-Benzylpiperidin-4-yl)-(3′,4′-dimethoxybiphenyl-4-ylmethyl)-(4-pentyl-benzyl)amine] yielded an IC50 ([1]; Additional Examples table) of 255 nM.
CCCCCc1ccc(C(=O)N(Cc2ccc(OCc3ccccc3)c(OCc3ccccc3)c2)C2CCN(Cc3ccccc3)CC2)cc1 [Example 10] gave an IC50 ([1]; […]) of 1200 nM.
Molecule CCCCCCCCCCCC(=O)N(Cc1ccc(OCc2ccccc2)cc1)C1CCN(Cc2ccccc2)CC1 [Example 6] has an IC50 ([1]; […]) of 1800 nM.
With CCCCCc1ccc(C(=O)N(Cc2ccc(-c3ccc4c(c3)OCO4)cc2)C2CCN(Cc3ccoc3)CC2)cc1 [Example 49, N-(4-Benzo[1,3]dioxol-5-yl-benzyl)-N-(1-furan-3-ylmethylpiperidin-4-yl)-4-pentylbenzamide] the IC50 ([1]; Additional Examples table) was 52 nM.
Work on CCCCCc1ccc(CN(Cc2ccc(-c3cccc(C(F)(F)F)c3)cc2)C2CCN(Cc3ccccc3)CC2)cc1 [Example 108, (1-Benzylpiperidin-4-yl)-(4-pentyl-benzyl)-(3′-trifluoromethyl-biphenyl-4-ylmethyl)amine] yielded an IC50 ([1]; Additional Examples table) of 634 nM.
CCCCCc1ccc(C(=O)N(Cc2ccc(-c3ccccc3)cc2)C2CCCN(Cc3ccccc3)CC2)cc1 (racemic) [Example 35] showed an IC50 ([1]; […]) of 1700 nM.
With CCCCCc1ccc(CN(Cc2ccc(-c3ccccc3)cc2)C2CCCN(Cc3ccccc3)CC2)cc1 (racemic) [Example 34] the IC50 ([1]; […]) was 1970 nM.
In the case of CCCCCc1ccc(C(=O)N(Cc2ccc(-c3ccccc3)cc2)C2CCN(CC3=CCCCC3)CC2)cc1 [Example 82, N-Biphenyl-4-ylmethyl-N-(1-cyclohex-1-enylmethylpiperidin-4-yl)-4-pentylbenzamide], the IC50 ([1]; Additional Examples table) was 196 nM.
Molecule CCCCCc1ccc(C(=O)N(Cc2ccc(-c3ccc(C#N)cc3)cc2)C2CCN(Cc3ccccc3)CC2)cc1 [Example 59, N-(1-Benzyl-piperidin-4-yl)-N-(4′-cyano-biphenyl-4-ylmethyl)-4-pentyl-benzamide] has an IC50 ([1]; Additional Examples table) of 81 nM.
In the case of CC(C)CC(=O)N[C@H](C(=O)N[C@H](C(=O)N[C@@H](CC(C)C)[C@@H](O)CC(=O)N[C@@H](C)C(=O)N[C@@H](CC(C)C)[C@@H](O)CC(=O)O)C(C)C)C(C)C [Pepstatin] (Isovaleryl-VV[Sta]A[Sta]-OH), the “growth of P. falciparum in red blood cells in vitro” value [2] is listed as “inhibits the growth”.
Molecule CCCCCc1ccc(C(=O)N(Cc2ccc(OCc3ccccc3)cc2)[C@H]2CCN(Cc3ccccc3)C2)cc1 [Example 75, N-(4-Benzyloxybenzyl)-N-((3S)-1-benzylpyrrolidin-3-yl)-4-pentylbenzamide] has an IC50 ([1]; Additional Examples table) of 141 nM.
CCCCCc1ccc(C(=O)N(Cc2ccc(-c3ccccc3)cc2)C2CCN(Cc3ccc(F)cc3)CC2)cc1 [Example 101, N-Biphenyl-4-ylmethyl-N-[1-(4-fluorobenzyl)piperidin-4-yl]-4-pentylbenzamide] showed an IC50 ([1]; Additional Examples table) of 385 nM.
Molecule CCCCCc1ccc(C(=O)N(Cc2ccc(-c3ccccc3)cc2)[C@H]2CCN(Cc3ccccc3)C2)cc1 [Example 36] has an IC50 ([1]; […]) of 164 nM.
